These results are taken from patent US20250170100A1, “MONOACYLGLYCEROL LIPASE INHIBITORS AND USE THEREOF FOR THE TREATMENT OF ANXIETY AND RELATED CONDITIONS” (Psy Therapeutics, Inc., priority 2021, published 2025).

The nature of data set [1]: Pharmacokinetic study of compounds in mice (brain, oral). The format is in vivo, male C57BL/6 mice. The note with it: 5 mg/kg. On the procedure:
Healthy male C57BL/6 mice (8-12 weeks old) weighing between 17 to 35 g were procured from Global, India. Temperature and humidity were maintained at 22±3° C. and 30-70%, respectively and illumination was controlled to give a sequence of 12 hr light and 12 hr dark cycle. Temperature and humidity were recorded by auto-controlled data logger system. All the animals were provided laboratory rodent diet. Reverse osmosis water treated with ultraviolet light was provided ad libitum.
Protocol A: Twenty-four male mice were divided into two groups as; Group 1:30 mg/kg/IP, Plasma and brain; Number of animals=12; Animal #1-12. Group 2:30 mg/kg/PO; Plasma and brain; Number of animals=12; Animal #13-24. […] All samples were processed for analysis by protein precipitation using acetonitrile and analyzed with fit-for-purpose LC/MS/MS method (LLOQ-2.02 ng/mL for plasma and 6.06 ng/g for brain). Pharmacokinetic parameters were calculated using the non-compartmental analysis tool of Phoenix WinNonlin®.
Protocol B: Thirty six mice were included into the study and divided in to three groups as Group 1 (n=12), Group 2 (n=12) and Group 3 (n=12) with n=2 mice per time-point design. […] Plasma and brain samples were quantified by fit-for-purpose LC-MS/MS method (LLOQ: 1.01 ng/mL for plasma and 2.02 ng/ml for brain). […]

Another data set has as its target human MAGL (Homo sapiens (Human), UniProt Q99685). Description: MAGL reversible inhibition assay (washout). The class given is biochemical. The note with it: pre-washout compound concentration: 1 μM. On the procedure:
The reversible mechanism of MAGL inhibition of a test compound of Formula (I) can be determined. Flag-tagged MAGL enzyme will be immobilized on anti-Flag beads. Immobilized enzyme will be incubated+/−inhibitor at a dose that produces complete inhibition. Colorimetric substrate (4-NPA) will be added and the reaction monitored on a plate reader for 30 minutes to verify complete inhibition. Immobilized enzyme will then be washed thoroughly to remove the inhibitor, and fresh substrate will be added. The reaction will be monitored for an additional 30 minutes; returning enzymatic activity will indicate reversibility of inhibition.
MAGL enzyme was incubated for 30 minutes in the presence of 40× the IC50 concentration of inhibitor. Enzyme+inhibitor mix was then diluted 40-fold so that the final concentration of the inhibitor equaled the IC50 concentration. Substrate was added and the reaction was monitored for 30 minutes.

Another data set concerns the target human recombinant FAAH (Homo sapiens (Human), UniProt O00519). Briefly: FAAH counter screen (Fatty Acid Amide Hydrolase Inhibitor Screening Assay Kit). The class given is biochemical. The note with it: Method B: starting concentration of 10 μM. On the procedure: MAGL inhibitor compounds were also counter-screened for FAAH inhibition potency using the following assay. Assessment of FAAH inhibition was performed using Fatty Acid Amide Hydrolase Inhibitor Screening Assay Kit (Cayman Item No. 10005196) following manufacture's instruction with some modifications. The kit utilizes human recombinant FAAH and the fluorescent substrate, AMC Arachidonoyl amide (AAMCA). 5 μL of assay buffer (125 mM Tris, pH 9.0, 1 mM EDTA, i.e. ethylenediaminetetraacetic acid) was added to a 384-well black plate (Corning, 3573). Test compounds and control inhibitor JZL-195 (Cayman Chemical, 13668) were tested in 10-concentration IC50 mode with 3-fold serial dilution at a starting concentration of 100 μM and 10 μM, respectively. 300 nL or 30 nL of test compounds were delivered into a 384-well black plate (Corning, 3573) using a Labcyte Echo, followed by addition of 15 μL of FAAH enzyme (Cayman, 700302) in assay buffer. After a 5-minute pre-incubation at room temperature, 10 μL of AAMCA was added in assay buffer to start the reaction. Final concentration of FAAH enzyme is not specified and AAMCA substrate was used at the 20 μM. After these dilutions, the final concentration of the test compounds ranged from 100 μM to 5.08 nM or 10 μM down to 0.508 nM. The reaction was allowed to progress for 60 minutes, while the plate was read on an Envision plate reader at an Ex/Em of 350/460 nm with readings every minute. The data was analyzed in Microsoft Excel, using the slope between 30 and 59 minutes. The average of the no-enzyme wells (background) was subtracted from the data. The background-subtracted slope data was converted to % activity using the average of wells with enzyme and DMSO vehicle. IC50 values were calculated using GraphPad software (Sigmoidal dose response, variable slope equation).
Compounds listed in Table D2 were tested in the FAAH Counterscreen of Example 19
On the technique in general: Counterscreens check selectivity or assay interference.

A short description of data set [2]: Plasma and brain concentrations after single intraperitoneal administration of Compound 473. The class given is in vivo, male C57BL/6 mice. The note with it: male, C57BL/6, mouse, IP 20 mg/kg, read-out: Brain/Plasma Ratio (kp) (mean). The protocol: (§1) This experiment was performed to determine plasma pharmacokinetics and estimate 2-AG levels in male C57BL/6 mice brain following a single intraperitoneal administration of Compound-473 (Dose: 20 mg/kg).
(§2) Study Design: A total of twelve C57BL/6 male mice were used in this study. Six animals were administered intraperitoneally with solution formulation of PSY-05-00473-002 at 20 mg/kg dose. Six animals were administered vehicle (5% NMP, 5% Solutol HS15 and 90% Normal saline) intraperitoneally at 10 mL/kg dose volume. Blood samples (approximately 60 μL) were collected under light isoflurane anesthesia from a set of six mice at 0.5 h. Plasma was harvested by centrifugation of blood and stored at −70±10° C. until analysis. After blood collection, mice were euthanized by cervical dislocation and brain samples were dissected rapidly and snapped frozen in liquid nitrogen and stored at −80. To homogenize, removed brain samples from the freezer, were divided into two equal hemispheres and weighed while still in frozen condition, and begun homogenization/extraction procedure without allowing the brain samples to thaw. […]
(§3) Analysis: For PK estimation, brain samples were homogenized in 2 volumes of PBS of brain weight. […] Plasma and brain homogenate samples were quantified by fit-for-purpose LC-MS/MS method (LLOQ: 1.02 ng/mL for plasma and 2.03 ng/ml for brain).

In another data set the test system is 2-AG levels in brain. Briefly: 2-AG estimation in mouse brain after single intraperitoneal administration of Compound 473. The class given is in vivo, male C57BL/6 mice. The conditions noted are these: IP 20 mg/kg, 0.5 h. The protocol: as §1, §2, §3

Some results are limits rather than exact numbers.

Sequence of human recombinant FAAH (O00519 whole entry): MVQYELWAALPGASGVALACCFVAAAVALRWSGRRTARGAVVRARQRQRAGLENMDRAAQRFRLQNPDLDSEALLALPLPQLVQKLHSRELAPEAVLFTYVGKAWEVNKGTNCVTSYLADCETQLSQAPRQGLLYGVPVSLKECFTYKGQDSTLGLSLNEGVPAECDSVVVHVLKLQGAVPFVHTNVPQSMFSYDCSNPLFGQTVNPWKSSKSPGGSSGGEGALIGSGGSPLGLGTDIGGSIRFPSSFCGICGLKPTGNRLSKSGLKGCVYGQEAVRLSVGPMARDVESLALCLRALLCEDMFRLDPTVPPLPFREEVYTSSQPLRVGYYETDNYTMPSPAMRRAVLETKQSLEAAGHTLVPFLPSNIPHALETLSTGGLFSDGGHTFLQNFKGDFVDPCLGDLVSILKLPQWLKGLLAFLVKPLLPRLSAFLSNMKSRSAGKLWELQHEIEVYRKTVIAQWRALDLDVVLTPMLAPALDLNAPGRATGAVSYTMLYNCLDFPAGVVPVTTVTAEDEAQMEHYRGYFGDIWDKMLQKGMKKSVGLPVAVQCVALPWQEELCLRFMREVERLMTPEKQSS
Sequence of human MAGL (Q99685 whole entry): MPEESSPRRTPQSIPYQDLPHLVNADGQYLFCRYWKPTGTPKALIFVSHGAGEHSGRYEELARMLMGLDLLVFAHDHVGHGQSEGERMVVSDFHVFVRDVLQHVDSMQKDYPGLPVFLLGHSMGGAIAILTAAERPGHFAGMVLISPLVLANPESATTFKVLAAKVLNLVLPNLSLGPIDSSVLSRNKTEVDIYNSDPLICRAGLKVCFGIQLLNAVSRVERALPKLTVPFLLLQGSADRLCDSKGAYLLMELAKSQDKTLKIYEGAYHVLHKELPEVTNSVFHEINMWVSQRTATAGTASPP

The Cmax is the peak of the concentration-time curve. As usually defined, the IC50 is the concentration at which inhibition is half-maximal. Regarding `O=C(c1cc(O)ccc1F)N1CC2(CC(n3cc(C(F)(F)F)c(-c4ccccc4F)n3)C2)C1` [Compound 473, (2-fluoro-5-hydroxyphenyl) {6-[3-(o-fluorophenyl)-4-(trifluoromethyl)-1-pyrazolyl]-2-aza-2-spiro[3.3]heptyl}methanone], in data set [1], the AUClast worked out at 464.42 ng·h/mL and the peak concentration (Cmax) is reported as 171.59 ng/g. The “A: degree to which MAGL enzymatic activity returned following washout” value at human MAGL is on record as 41. Besides, the IC50 at human recombinant FAAH was > 10 µM. For the same molecule, the Kp at 0.5 h in data set [2] came out at 1.44. Moreover, in the data set on 2-AG levels in brain, the “Mean 2AG Concentration in Brain” value is 17.38 nmol/g.
